Legend:
Test in all cases: -log10 GI50 (growth inhibition 50%) (-log10(M)); higher = more potent growth inhibition
HCC1395 = system: HCC1395
Summary of the method: (§1)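 Dose-response data came from breast cancer cell lines exposed to each compound for 72 hours at nine doses in 1:5 serial dilution, in triplicate, and read by luminescence relative to a time-zero plate. A Gompertz curve fitted by nonlinear least squares gave GI50, the molar concentration for the set level of growth inhibition, reported as its negative logarithm to base 10. Where a value equals the top dose, it carries a < qualifier.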

SUM225CWN = system: SUM225CWN
Summary of the method: as §1

HCC38 = system: HCC38
Summary of the method: as §1

ZR75B = system: ZR75B
Summary of the method: as §1

AU565 = system: AU565
Summary of the method: as §1

MX1 = system: MX1
Summary of the method: as §1

MDAMB175VII = system: MDAMB175VII
Summary of the method: as §1

BT474 = system: BT474
Summary of the method: as §1

LY2 = system: LY2
Summary of the method: as §1

T47D = system: T47D
Summary of the method: as §1

CAMA1 = system: CAMA1
Summary of the method: as §1

600MPE = system: 600MPE
Summary of the method: as §1

MDAMB415 = system: MDAMB415
Summary of the method: as §1

HCC1954 = system: HCC1954
Summary of the method: as §1

MDAMB134VI = system: MDAMB134VI
Summary of the method: as §1

ZR751 = system: ZR751
Summary of the method: as §1

BT20 = system: BT20
Summary of the method: as §1

HCC70 = system: HCC70
Summary of the method: as §1

MDAMB361 = system: MDAMB361
Summary of the method: as §1

SUM159PT = system: SUM159PT
Summary of the method: as §1

SUM149PT = system: SUM149PT
Summary of the method: as §1

SKBR3 = system: SKBR3
Summary of the method: as §1

HCC1569 = system: HCC1569
Summary of the method: as §1

MDAMB453 = system: MDAMB453
Summary of the method: as §1

MCF7 = system: MCF7
Summary of the method: as §1

MCF10F = system: MCF10F
Summary of the method: as §1

BT483 = system: BT483
Summary of the method: as §1

HCC1428 = system: HCC1428
Summary of the method: as §1

UACC812 = system: UACC812
Summary of the method: as §1

MDAMB157 = system: MDAMB157
Summary of the method: as §1

SUM52PE = system: SUM52PE
Summary of the method: as §1

HCC3153 = system: HCC3153
Summary of the method: as §1

MDAMB231 = system: MDAMB231
Summary of the method: as §1

MCF10A = system: MCF10A
Summary of the method: as §1

MCF12A = system: MCF12A
Summary of the method: as §1

BT549 = system: BT549
Summary of the method: as §1

SUM229PE = system: SUM229PE
Summary of the method: as §1

HS578T = system: HS578T
Summary of the method: as §1

T47D_KBluc = system: T47D_KBluc
Summary of the method: as §1

HCC1806 = system: HCC1806
Summary of the method: as §1

HCC1143 = system: HCC1143
Summary of the method: as §1

SUM1315MO2 = system: SUM1315MO2
Summary of the method: as §1

HCC2185 = system: HCC2185
Summary of the method: as §1

HCC1187 = system: HCC1187
Summary of the method: as §1

184B5 = system: 184B5
Summary of the method: as §1

184A1 = system: 184A1
Summary of the method: as §1

HCC1937 = system: HCC1937
Summary of the method: as §1

HCC1419 = system: HCC1419
Summary of the method: as §1

HCC202 = system: HCC202
Summary of the method: as §1

SUM185PE = system: SUM185PE
Summary of the method: as §1

## CSCC[C@H](NC(=O)[C@H](Cc1ccccc1)NC[C@@H](NC[C@@H](N)CS)C(C)C)C(=O)O [FTase inhibitor I]
HCC1395
  -log10 GI50: < 4.18
SUM225CWN
  -log10 GI50: 4.49
HCC38
  -log10 GI50: < 4.48
ZR75B
  -log10 GI50: < 4.48
AU565
  -log10 GI50: < 4.48
MX1
  -log10 GI50: < 4.48
MDAMB175VII
  -log10 GI50: < 4.48
BT474
  -log10 GI50: < 4.18
LY2
  -log10 GI50: < 4.48
T47D
  -log10 GI50: < 4.48
CAMA1
  -log10 GI50: < 4.48
600MPE
  -log10 GI50: < 4.48
MDAMB415
  -log10 GI50: < 4.18
HCC1954
  -log10 GI50: < 4.48
MDAMB134VI
  -log10 GI50: < 4.48
ZR751
  -log10 GI50: < 4.18
BT20
  -log10 GI50: < 4.48
HCC70
  -log10 GI50: < 4.18
MDAMB361
  -log10 GI50: < 4.18
SUM159PT
  -log10 GI50: 5
SUM149PT
  -log10 GI50: 4.76
SKBR3
  -log10 GI50: < 4.48
HCC1569
  -log10 GI50: < 4.18
MDAMB453
  -log10 GI50: < 4.18
MCF7
  -log10 GI50: < 4.48
MCF10F
  -log10 GI50: < 4.48
BT483
  -log10 GI50: < 4.48
HCC1428
  -log10 GI50: < 4.48
UACC812
  -log10 GI50: < 4.48
MDAMB157
  -log10 GI50: < 4.18
SUM52PE
  -log10 GI50: 4.93
HCC3153
  -log10 GI50: < 4.48
MDAMB231
  -log10 GI50: < 4.18
MCF10A
  -log10 GI50: < 4.48
MCF12A
  -log10 GI50: < 4.18
BT549
  -log10 GI50: < 4.18
SUM229PE
  -log10 GI50: < 4.48
HS578T
  -log10 GI50: < 4.48
T47D_KBluc
  -log10 GI50: < 4.18
HCC1806
  -log10 GI50: < 4.48
HCC1143
  -log10 GI50: < 4.48
SUM1315MO2
  -log10 GI50: < 4.18
HCC2185
  -log10 GI50: < 4.48
HCC1187
  -log10 GI50: < 4.48
184B5
  -log10 GI50: < 4.18
184A1
  -log10 GI50: < 4.18
HCC1937
  -log10 GI50: < 4.48
HCC1419
  -log10 GI50: < 4.18

## O=C(c1ccc(Nc2nccc(-c3cc4ccccc4s3)n2)cc1)N1CCC(N2CCCC2)CC1 [IKK 16]
HCC1395
  -log10 GI50: 5.86
SUM225CWN
  -log10 GI50: 5.51
HCC38
  -log10 GI50: 5.45
AU565
  -log10 GI50: 5.58
BT474
  -log10 GI50: 5.27
LY2
  -log10 GI50: 5.26
T47D
  -log10 GI50: 5.55
CAMA1
  -log10 GI50: 5.57
600MPE
  -log10 GI50: 5.11
HCC1954
  -log10 GI50: 5.77
MDAMB134VI
  -log10 GI50: 5.26
ZR751
  -log10 GI50: 5.29
BT20
  -log10 GI50: 5.42
HCC70
  -log10 GI50: 5.54
MDAMB361
  -log10 GI50: 5.24
SUM159PT
  -log10 GI50: 5.8
SUM149PT
  -log10 GI50: 5.82
SKBR3
  -log10 GI50: 5.53
HCC1569
  -log10 GI50: 5.48
MDAMB453
  -log10 GI50: 5.55
MCF10F
  -log10 GI50: 5.37
HCC1428
  -log10 GI50: 5.4
UACC812
  -log10 GI50: 5.09
MDAMB157
  -log10 GI50: 5.74
SUM52PE
  -log10 GI50: 5.94
HCC3153
  -log10 GI50: 5.48
MDAMB231
  -log10 GI50: 5.44
MCF10A
  -log10 GI50: 5.56
MCF12A
  -log10 GI50: 5.39
BT549
  -log10 GI50: 5.4
SUM229PE
  -log10 GI50: 6
HS578T
  -log10 GI50: 5.53
T47D_KBluc
  -log10 GI50: 5.38
HCC1806
  -log10 GI50: 5.99
HCC1143
  -log10 GI50: 5.3
SUM1315MO2
  -log10 GI50: 5.81
HCC2185
  -log10 GI50: 5.13
HCC1187
  -log10 GI50: 5.25
184B5
  -log10 GI50: 5.83
184A1
  -log10 GI50: 6.05
HCC1937
  -log10 GI50: 5.59
HCC202
  -log10 GI50: 5.1
HCC1419
  -log10 GI50: 5.36

## Nc1nc2[nH]cc(CCc3ccc(C(=O)N[C@@H](CCC(=O)O)C(=O)O)cc3)c2c(=O)[nH]1 [Pemetrexed]
HCC1395
  -log10 GI50: < 2.53
SUM225CWN
  -log10 GI50: < 2.53
HCC38
  -log10 GI50: < 2.53
ZR75B
  -log10 GI50: < 2.53
AU565
  -log10 GI50: < 2.53
MX1
  -log10 GI50: < 2.53
MDAMB175VII
  -log10 GI50: 8.1
BT474
  -log10 GI50: < 2.53
LY2
  -log10 GI50: 6.33
T47D
  -log10 GI50: < 2.53
CAMA1
  -log10 GI50: 4.62
600MPE
  -log10 GI50: < 2.53
MDAMB415
  -log10 GI50: < 2.53
HCC1954
  -log10 GI50: < 2.53
SUM185PE
  -log10 GI50: < 2.53
MDAMB134VI
  -log10 GI50: < 2.53
ZR751
  -log10 GI50: 5.05
BT20
  -log10 GI50: < 2.53
HCC70
  -log10 GI50: < 2.53
MDAMB361
  -log10 GI50: 6.19
SUM159PT
  -log10 GI50: < 2.53
SUM149PT
  -log10 GI50: < 2.53
SKBR3
  -log10 GI50: 5.02
HCC1569
  -log10 GI50: < 2.53
MDAMB453
  -log10 GI50: < 2.53
MCF7
  -log10 GI50: < 2.53
MCF10F
  -log10 GI50: < 2.53
BT483
  -log10 GI50: < 2.53
HCC1428
  -log10 GI50: < 2.53
UACC812
  -log10 GI50: < 2.53
MDAMB157
  -log10 GI50: < 2.53
SUM52PE
  -log10 GI50: < 2.53
HCC3153
  -log10 GI50: < 2.53
MDAMB231
  -log10 GI50: < 2.53
MCF10A
  -log10 GI50: < 2.53
MCF12A
  -log10 GI50: 6.72
BT549
  -log10 GI50: < 2.53
SUM229PE
  -log10 GI50: 4.53
HS578T
  -log10 GI50: 4.59
T47D_KBluc
  -log10 GI50: < 2.53
HCC1806
  -log10 GI50: 6.05
HCC1143
  -log10 GI50: < 2.53
SUM1315MO2
  -log10 GI50: < 2.53
HCC2185
  -log10 GI50: < 2.53
HCC1187
  -log10 GI50: < 2.53
184B5
  -log10 GI50: 6.44
184A1
  -log10 GI50: 6.38
HCC1937
  -log10 GI50: 3.17
HCC202
  -log10 GI50: 5.11
HCC1419
  -log10 GI50: < 2.53

Source: the supplement of paper PMC3937590
